# How the values were obtained:
# [1] = test system: DNA from Salmonella TA100; assay: Stable DNA adducts by 32P-postlabeling in DNA of treated TA100; assay type: cell-based; settings: TA100, 10 µg/ml; DMSO 0.024 ± 0.000
# strain TA100 = assay type: cell-based, Salmonella; settings: TA100 liquid-suspension, 10 µg/ml
# Salmonella TA100 = assay: Salmonella plate-incorporation mutagenicity assay, strain TA100; assay type: cell-based
# Salmonella = settings: cited from earlier work
# [2] = test system: DNA from Salmonella TA100; assay: Abasic sites by aldehydic-site assay in DNA of treated TA100; assay type: cell-based; settings: TA100, 10 µg/ml; DMSO 5.9 ± 0.33
# Salmonella TA98 = assay: Salmonella plate-incorporation mutagenicity assay, strain TA98, with S9 mix; assay type: cell-based
# Salmonella TA104 = assay: Salmonella plate-incorporation mutagenicity assay, strain TA104, with S9 mix; assay type: cell-based
# [3] = incubation with rat liver microsomes; cited from earlier work
smiles,measurement,setting,value
"c1ccc2c(c1)ccc1ccc3sccc3c12 [P[3,4-b]T, Phenanthro[3,4,-b]thiophene]",Stable adducts/10^8 nucleotides ± S.E,[1],0.090 ± 0.007 adducts/10^8 nucleotides
same,Fold increase in mutant frequency relative to DMSO-treated cells,strain TA100,5.3 fold
same,Rev/10^6 survivors,strain TA100; DMSO 0.8,4.3 Rev/10^6 survivors
same,Percent survival,strain TA100; DMSO 100,24%
same,Rev/plate,"Salmonella TA100; TA100 +S9, Test 2, 0.05 µg/plate, zero-dose 84/78/80",131/124
same,Rev/plate,"Salmonella TA100; TA100 +S9, Test 2, 0.1 µg/plate, zero-dose 84/78/80",120/128
same,Rev/plate,"Salmonella TA100; TA100 +S9, Test 2, 0.25 µg/plate, zero-dose 84/78/80",235/243
same,Rev/plate,"Salmonella TA100; TA100 +S9, Test 2, 0.5 µg/plate, zero-dose 84/78/80",389/354
same,Rev/plate,"Salmonella TA100; TA100 +S9, Test 3, 0.05 µg/plate, zero-dose 127/118/125",151/163
same,Rev/plate,"Salmonella TA100; TA100 +S9, Test 3, 0.1 µg/plate, zero-dose 127/118/125",187/201
same,Rev/plate,"Salmonella TA100; TA100 +S9, Test 3, 0.25 µg/plate, zero-dose 127/118/125",344/311
same,Rev/plate,"Salmonella TA100; TA100 +S9, Test 3, 0.5 µg/plate, zero-dose 127/118/125",450/508
same,Rev/plate,"Salmonella TA100; TA100 +S9, Test 4, 0.05 µg/plate, zero-dose 112/140/115",144/123
same,Rev/plate,"Salmonella TA100; TA100 +S9, Test 4, 0.1 µg/plate, zero-dose 112/140/115",159/169
same,Rev/plate,"Salmonella TA100; TA100 +S9, Test 4, 0.25 µg/plate, zero-dose 112/140/115",216/227
same,Rev/plate,"Salmonella TA100; TA100 +S9, Test 4, 0.5 µg/plate, zero-dose 112/140/115",333/364
same,Rev/plate,"Salmonella TA100; TA100 +S9, Test 5, 0.05 µg/plate, zero-dose 102/119/99",136/140
same,Rev/plate,"Salmonella TA100; TA100 +S9, Test 5, 0.1 µg/plate, zero-dose 102/119/99",175/132
same,Rev/plate,"Salmonella TA100; TA100 +S9, Test 5, 0.25 µg/plate, zero-dose 102/119/99",237/166
same,Rev/plate,"Salmonella TA100; TA100 +S9, Test 5, 0.5 µg/plate, zero-dose 102/119/99",366/305
same,"Mutagenic potency, Revertants/µg ± S.E., TA100","Salmonella TA100; plate-incorporation, +S9",550 ± 61 rev/µg
same,Mutagenicity call TA100,"Salmonella TA100; plate-incorporation, +S9","(+) (Called mutagenic (+) based on showing reproducible, dose-related increases in rev/plate that reached or exceeded 2-fold relative to zero-dose controls)"
same,Reported Mutagenicity,Salmonella,mutagenic
same,Abasic sites/10^5 nucleotides ± S.E,[2],6.2 ± 0.26 sites/10^5 nucleotides
same,Rev/plate,"Salmonella TA98; TA98 +S9, Test 1, 2 µg/plate, zero-dose 33/40/39",81 rev/plate
same,Rev/plate,"Salmonella TA98; TA98 +S9, Test 1, 5 µg/plate, zero-dose 33/40/39",80 rev/plate
same,Rev/plate,"Salmonella TA98; TA98 +S9, Test 1, 10 µg/plate, zero-dose 33/40/39",62 rev/plate
same,Rev/plate,"Salmonella TA98; TA98 +S9, Test 1, 20 µg/plate, zero-dose 33/40/39",54 rev/plate
same,Rev/plate,"Salmonella TA98; TA98 +S9, Test 1, 40 µg/plate, zero-dose 33/40/39",60 rev/plate
same,Rev/plate,"Salmonella TA98; TA98 +S9, Test 1, 80 µg/plate, zero-dose 33/40/39",55 rev/plate
same,Rev/plate,"Salmonella TA98; TA98 +S9, Test 2, 0.05 µg/plate, zero-dose 43/41/30",30/40
same,Rev/plate,"Salmonella TA98; TA98 +S9, Test 2, 0.1 µg/plate, zero-dose 43/41/30",31/33
same,Rev/plate,"Salmonella TA98; TA98 +S9, Test 2, 0.25 µg/plate, zero-dose 43/41/30",33/32
same,Rev/plate,"Salmonella TA98; TA98 +S9, Test 2, 0.5 µg/plate, zero-dose 43/41/30",58/34
same,Rev/plate,"Salmonella TA98; TA98 +S9, Test 3, 0.05 µg/plate, zero-dose 49/50/50",57/49
same,Rev/plate,"Salmonella TA98; TA98 +S9, Test 3, 0.1 µg/plate, zero-dose 49/50/50",50/51
same,Rev/plate,"Salmonella TA98; TA98 +S9, Test 3, 0.25 µg/plate, zero-dose 49/50/50",40/63
same,Rev/plate,"Salmonella TA98; TA98 +S9, Test 3, 0.5 µg/plate, zero-dose 49/50/50",66/69
same,"Mutagenic potency, Revertants/µg ± S.E., TA98","Salmonella TA98; plate-incorporation, +S9",0.2 ± 0.2 rev/µg
same,Rev/plate,"Salmonella TA104; TA104 +S9, Test 2, 0.5 µg/plate, zero-dose 276/260/270",335/385
same,Rev/plate,"Salmonella TA104; TA104 +S9, Test 2, 1 µg/plate, zero-dose 276/260/270",461/542
same,Rev/plate,"Salmonella TA104; TA104 +S9, Test 2, 2 µg/plate, zero-dose 276/260/270",569/553
same,Rev/plate,"Salmonella TA104; TA104 +S9, Test 2, 5 µg/plate, zero-dose 276/260/270",582/601
same,Rev/plate,"Salmonella TA104; TA104 +S9, Test 3, 0.5 µg/plate, zero-dose 402/395/336",507/473
same,Rev/plate,"Salmonella TA104; TA104 +S9, Test 3, 1 µg/plate, zero-dose 402/395/336",571/559
same,Rev/plate,"Salmonella TA104; TA104 +S9, Test 3, 2 µg/plate, zero-dose 402/395/336",604/630
same,Rev/plate,"Salmonella TA104; TA104 +S9, Test 3, 5 µg/plate, zero-dose 402/395/336",535/679
same,"Mutagenic potency, Revertants/µg ± S.E., TA104","Salmonella TA104; plate-incorporation, +S9",210 ± 84 rev/µg
same,"Major relatively nonpolar metabolite(s), share of the total metabolites",[3],80–96%

# — article PMC2819846 (Mutation research, 2008)
